From PMC7619385 (ACS infectious diseases, 2025)
Read-outs that look alike come from different tables or passages of the source.

Columns and labels:
NLuc::LmxCLK1 [1] = target: T1, NLuc::LmxCLK1 (Leishmania mexicana, UniProt E9AMP2); assay: In vitro BRET with purified NLuc::LmxCLK1; type: binding
Method: (§1) in vitro BRET used purified NLuc-LmxCLK1 in Kinase Buffer (50 mM HEPES, 1 mM EGTA, 10 mM MgCl^2, 2 mM DTT and 0.01% Tween-20) aliquoted into 96-well plates (Greiner #655904). In cell BRET assays used engineered L. mexicana (promastigotes or intramacrophage amastigotes) expressing NLuc-LmxCLK1 in cell media aliquoted into 96-well plates (Greiner, #655083). For tracer titration experiments, BRET probes were serially diluted from 100% DMSO stocks – first in 100% DMSO to 100x final assay concentration, and then in Tracer Dilution Buffer (TDB - 12.5 mM HEPES, pH 7.5; 31.25% PEG 400) to 20x the final assay concentration. Serially diluted probes (5 µL) were added to 85 µL of cells in culture media or 85 µL of purified protein. Final well volumes were adjusted to 100 µL with sterile Opti-MEM™ I Reduced Serum Medium (Thermo-Scientific) – for wells containing cells; or Kinase Buffer - for wells containing purified protein. For tracer displacement assays, samples were prepared as above, but final volume was brought to 100 µL by addition of vehicle or serially-diluted test compounds. Final DMSO concentration in these assays was 1%. Plates were incubated for 30 min at 25 °C (purified protein and promastigotes) or 34 °C (intramacrophage amastigotes), and 50 µL of Promega cocktail containing furimazine and NLuc extracellular inhibitor (catalog #N2161) were added to each well. Light emissions at 460+10 nm (BRET donor) and at 610+20 nm (BRET acceptor) were sequentially recorded (integration time = 0.5 s, gain = 3600) using a luminometer (BMG LABTECH Clariostar or Biotek Synergy HT). BRET values are reported in milli-BRET (mBRET) units (mBU), obtained by dividing the acceptor luminescence by the donor luminescence and multiplying the result by a factor of 1,000. BRET values were converted to blank-corrected probe occupancies (%) according to equation [1]: (1) Probeoccupancy(%)=X−Z/Y−Z×100 where X = mBRET value in the presence of the test compound and the probe, Y = mBRET value in the presence of probe only, and Z = mBRET value in the absence of probe and test compound.
To determine apparent dissociation constants from saturation binding curves, mBRET values were plotted as a function of probe concentration, and probe affinity values (KD) were determined using the hyperbolic dose-response equation for binding to a single site available in GraphPad Prism (v. 9.1.0).

[2] = tested on: L. mexicana promastigotes; assay: Promastigote viability (Alamar Blue/resazurin); type: cell-based; conditions: Leishmania mexicana; 48 h compound exposure; read-out: EC50 promastigote viability
Method: Next, we evaluated GZD824 ability to reduce the viability of L. mexicana promastigotes by monitoring the reduction of resazurin (Alamar Blue).[31]
(§2) L. mexicana (strain MNYC/BZ/62/M379) promastigotes were cultivated in medium 199 (M199) (Earle’s Salts - Gibco) supplemented with 10% (v/v) heat-inactivated fetal calf serum (HIFCS – Cultilab) and 1% Penicillin/Streptomycin solution (Sigma-Aldrich) at 26 °C. Phenotypic drug response assays in null mutant and point-mutation mutant lines were performed in HOMEM supplemented with 10% (v/v) heat-inactivated fetal calf serum (HIFCS – Gibco). THP-1 monocytes were differentiated in adherent macrophages with 50 ng of PMA for 72 h at 37 °C and 5% CO2 before infection with stationary phase promastigotes (ratio 10 promastigotes:1 macrophage) for 6 h, followed by washing to remove non-internalized Leishmania. Infected macrophages were incubated at 34 °C and 5% CO2 for 48 h in RPMI (Gibco) supplemented with 10% HIFCS and 1% Penicillin/Streptomycin solution.
For evaluation of drug effect on promastigote and uninfected macrophage viability, cells were cultivated in the presence of test compounds for 24 h and incubated with 10% AlamarBlue™ Cell Viability Reagent (ThermoFisher) for 24 h before measuring fluorescence at λex 540 nm/λem 590 nm. Untreated cells (1% DMSO) were set as 100 % viable cells. Intracellular amastigotes were treated with compounds for 48 h. Slides with paraformaldehyde-fixed and DAPI-stained cells were imaged on a Zeiss AxioImager microscope – at least 200 macrophages per drug concentration and DMSO control. Experiments were performed in duplicate. The total number of amastigotes was normalized by the number of macrophages counted. For EC50 determination, the data was fitted to the sigmoidal dose-response (variable slope) equation in GraphPad Prism (v.9.1.0).

LmxCLK1 [3] = target: T2, LmxCLK1 (Leishmania mexicana, UniProt E9AMP2); assay: HTRF (TR-FRET) enzymatic inhibition assay; type: biochemical; conditions: IC50 enzymatic inhibition of LmxCLK1, purified LmxCLK1, 30-min pre-incubation, 66 µM ATP
T2 sequence (E9AMP2 1-422): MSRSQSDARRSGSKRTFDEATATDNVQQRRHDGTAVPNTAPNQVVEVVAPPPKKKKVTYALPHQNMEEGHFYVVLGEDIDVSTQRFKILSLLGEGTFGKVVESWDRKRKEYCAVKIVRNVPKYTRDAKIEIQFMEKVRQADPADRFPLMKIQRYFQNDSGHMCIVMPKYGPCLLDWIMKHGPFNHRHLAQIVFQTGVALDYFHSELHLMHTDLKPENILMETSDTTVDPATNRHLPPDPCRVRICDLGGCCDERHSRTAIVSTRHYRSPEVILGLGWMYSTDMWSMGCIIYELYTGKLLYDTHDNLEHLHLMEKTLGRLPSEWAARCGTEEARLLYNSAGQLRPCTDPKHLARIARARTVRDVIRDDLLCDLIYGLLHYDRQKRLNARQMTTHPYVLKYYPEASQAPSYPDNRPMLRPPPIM
Method: The enzymatic activity of full-length LmxCLK1 was monitored using a homogenous time-resolved fluorescence (HTRF)-based assay (HTRF KinEASE-STK S3 kit, Cisbio - catalog #62ST3PEC). For IC50 value determination, the data from two independent experiments performed in duplicate were fitted to the sigmoidal dose-response (variable slope) equation available in GraphPad Prism (v. 9.1.0). Detailed information for IC50 determination can be found in the Supplementary Information. […]
min at 4 °C. The supernatants were loaded onto an immobilized metal affinity chromatography (IMAC) […]
column (5 mL HisTrap FF Crude, GE Healthcare) and washed in Binding Buffer containing 30 mM imidazole.
Proteins were eluted in Binding Buffer with 300 mM imidazole. To remove the N-terminal 6xHis-tag […]
introduced during cloning (see above), proteins were incubated with TEV protease during dialysis […]
overnight at 4 °C into Gel Filtration Buffer (20 mM HEPES, 500 mM NaCl, 5% glycerol, 0.5 mM TCEP).
Recombinant proteins were further purified using reverse affinity chromatography on Ni-Sepharose […]
followed by gel filtration (Superdex 200 16/60, GE Healthcare), and concentrated using 10 kDa molecular […]
weight cut-off centrifugal concentrators (Millipore). LmxCLK1 (CQMED clone ID LmxCLK1-cb001) and […]
NLuc-LmxCLK1 (CQMED clone ID LmxCLK1-cb021) proteins were stored at -80 °C for in vitro biochemical […]
assays at 0.5 mg/mL and 0.7 mg/mL, respectively, measured by UV absorbance with a NanoDrop […]
spectrophotometer (Thermo Scientific), using the calculated molecular weight and estimated extinction […]
Purified proteins were further analyzed by LC-ESI-MS in a XEVO G2 Sx Q-ToF (Waters). Expected intact […]
masses for LmxCLK1 (CQMED clone ID LmxCLK1-cb001) and NLuc-LmxCLK1 (CQMED clone ID LmxCLK1- […]
cb021) were: 48,791.14 Da and 68,411.71 Da, respectively.
We monitored the activity of recombinantly produced full-length LmxCLK1 (CQMED clone ID LmxCLK1- […]
cb001) using a commercially-available homogenous time-resolved fluorescence (HTRF)-based assay (HTRF […]
KinEASE-STK S3 kit, Cisbio - catalog #62ST3PEC). Assay development included establishing reaction […]
parameters (optimal enzyme concentration, ATP concentration and reaction time).
(15-point, 3-fold serial dilution and a highest final assay concentration of 10 µM) prior to transfer (100 nL) […]
to a black, 384-well, round bottom, low-volume plate (Corning catalog #4514) containing a mixture of […]
LmxCLK1 and peptide substrate in kinase buffer using an automated liquid transferring system (CYBIO […]
FeliX®, Analytik Jena, Jena, Germany). […]
started by the addition of ATP and allowed to proceed for 75 min at 30 °C. Final concentrations for reaction […]
components were: 6 nM LmxCLK1, 66 µM ATP (10× KM,ATP), 1 µM peptide (STK Substrate 3-biotin, Cisbio).
All components were prepared in 1× Enzymatic Buffer (Cisbio) supplemented with 5 mM MgCl2, 1 mM […]
DTT, 0.01% Tween-20. The reaction was stopped by the addition of Detection Buffer containing EDTA, […]
Fluorescence signal was measured using a CLARIOstar microplate reader (BMG LABTECH) with excitation […]
at 330 nm, emission at 665 nm (acceptor) and 620 nm (donor), integration delay 60 μs and integration […]
time 400 μs. All reactions were done in duplicate and two independent experiments were performed.
Enzyme activity was expressed as the background-corrected HTRF ratio of the acceptor and donor […]
emission signals according to equation [1]:
(also on this page, place not known: imi dazole. Ni -Sepharose background -corrected (665/620)=3Acceptor!!"#$ −backgroundD.10,000 Downloaded from http://pubs.acs.org/aidcbc/article-supplement/3662943/pdf/id5c00610_si_001/ by guest on 07 August 2026) […]
where background is the background fluorescence obtained in the absence of enzyme (blank).
To determine IC50 values, the background-corrected HTRF ratio was plotted as a function of test

NLuc::LmxCLK1 [4] = target: T1, NLuc::LmxCLK1; assay: cell-based; type: cell-based
Method in brief: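 NanoBRET tracer displacement in live cells expressing NLuc-tagged CLK1, test compounds at 10 µM fixed, 1% DMSO final. Acceptor/donor emission (610/460 nm) ratio gives mBRET, converted to blank-corrected probe occupancy (%); probe KD from single-site saturation binding fits.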

NLuc::LmxCLK1 [5] = target: T1, NLuc::LmxCLK1; assay: In-cell BRET target engagement in intracellular amastigotes expressing NLuc::LmxCLK1; type: cell-based
Method: as §2, §1

LmxCLK1 [6] = target: T2, LmxCLK1; assay: biochemical; type: binding; conditions: DSF, 10 µM compound

SMILES: Cc1ccc(C(=O)Nc2ccc(CN3CCN(CCCNC(=O)CCC4=[N+]5C(=Cc6ccc(-c7ccc[nH]7)n6[B-]5(F)F)C=C4)CC3)c(C(F)(F)F)c2)cc1C#Cc1cnc2[nH]ncc2c1 [SV363]
- EC50 (NLuc::LmxCLK1 [1]): > 1000 nM

SMILES: CN[C@@H]1C[C@H]2O[C@@](C)([C@@H]1OC)n1c3ccccc3c3c4c(c5c6ccccc6n2c5c31)C(=O)NC4 [Staurosporine]
- EC50 [2]: 900 nM
- IC50 (LmxCLK1 [3]): 460 nM

SMILES: Cc1ccc(C(=O)Nc2ccc(CN3CCN(CCCNC(=O)c4ccc(C(=O)O)c(-c5c6ccc(=O)cc-6oc6cc(O)ccc56)c4)CC3)c(C(F)(F)F)c2)cc1C#Cc1cnc2[nH]ncc2c1 [SV366]
- EC80 (NLuc::LmxCLK1 [4]; 0.5 h, read-out: EC80 tracer titration in promastigotes): 1050 nM
- EC50 (NLuc::LmxCLK1 [4]; read-out: EC50 tracer titration in promastigotes, live promastigotes): 383 nM
- EC80 (NLuc::LmxCLK1 [1]; 0.5 h, read-out: EC80 tracer titration, purified NLuc-LmxCLK1): 59.4 nM
- EC50 (NLuc::LmxCLK1 [1]; read-out: EC50 tracer titration, purified NLuc::LmxCLK1, BRET probe binding): 8.4 nM
- Kd (NLuc::LmxCLK1 [1]; saturation binding to purified NLuc::LmxCLK1): 5.9 nM
- EC80 (NLuc::LmxCLK1 [5]; 0.5 h, read-out: EC80 tracer titration in intracellular amastigotes): 200 nM
- EC50 (NLuc::LmxCLK1 [5]; read-out: EC50 tracer titration in intracellular amastigotes, infected macrophages): 72.6 nM
- Lower EC50 in intracellular amastigotes compared to promastigotes (NLuc::LmxCLK1 [5]; tracer titration): approximately 5 fold

SMILES: CS(=O)(=O)c1ccc(-c2cnc(N)c(C(=O)Nc3ccccc3)n2)cc1 [VE-821]
- receptor occupancy at 10 µM (NLuc::LmxCLK1 [4]; read-out: Target occupancy Average): -2.9%
- receptor occupancy at 10 µM (NLuc::LmxCLK1 [4]; read-out: Target occupancy Run 1): -11.1%
- receptor occupancy at 10 µM (NLuc::LmxCLK1 [4]; read-out: Target occupancy Run 2): 5.3%
- ΔTm at 10 µM (LmxCLK1 [6]; 2 µM LmxCLK1, Run 1, read-out: ΔTm Run 1): -0.2 °C
- ΔTm at 10 µM (LmxCLK1 [6]; 2 µM LmxCLK1, Run 2, read-out: ΔTm Run 2): -0.5 °C
- ΔTm at 10 µM (LmxCLK1 [6]; 2 µM LmxCLK1, mean of two runs, read-out: ΔTm Average): -0.4 °C
